Results: article PMC7472354, “Enhanced Antimicrobial Activity of N-Terminal Derivatives of a Novel Brevinin-1 Peptide from The Skin Secretion of Odorrana schmackeri” (Toxins, 2020)
“Also recorded” adds a separate entry of the source. Where a SMILES comes first, the peptide text is derived from it.

Key:
horse red blood cells = settings: 2 h
Experimental: The haemolytic activity of synthetic peptides was determined using the horse red blood cells that were extracted from the de-fibroblast whole horse blood (TCS Biosciences Ltd. Buckingham, UK). […] Briefly, the red blood cells were harvested and washed using PBS until all broken red blood cells were removed. Then, a 2% cell suspension was prepared using PBS. The peptide concentrations were set as antimicrobial activity assay and mixed with the red blood cells in the microcentrifuge tubes. After a 2 h-incubation at 37 °C, the tubes were centrifuged and the suspension was transferred into a clear 96 well plate. The absorbance of released haemoglobin in the suspension was detected at 570 nm by a plate reader. Besides, the red blood cells treated with PBS and 1% Triton X-100 were used as the negative and positive controls, respectively. […] The therapeutic index (TI) was further determined as below:(1) TI=HC50/product of n MICsn,

MRSA [1] = assay: Treatment of MRSA-infected Galleria mellonella larvae; type: in vivo; settings: 10 µL of 10^8 CFU/mL MRSA injected; peptide 25 or 50 mg/kg injected after 2 h; 30 larvae per group
Experimental: The in vivo study of antimicrobial activity of the peptides was evaluated using the larvae of Galleria mellonella, which was described in the previous study with minor modifications. The larvae of Galleria mellonella (250 ± 25 mg; Livefood UK Ltd., Rooks Bridge, UK) were selected. The MRSA culture was prepared the same way as the antimicrobial activity assay. Then, MRSA cells were collected and washed, and further diluted to 10^8 CFU/mL in the saline. Ten µL of MRSA suspension was injected to the larvae and placed in a petri dish. After 2 h, the MRSA infected larvae were administrated with 10 µL of peptides (25 mg/kg, 50 mg/kg) by injection. Saline and vancomycin (20 mg/kg) (Sigma-Aldrich, UK) were used as the negative control and positive control, respectively. Each sample group contained 10 larvae, and the experiment was repeated three times (30 larvae for each group in total). The survival curves were achieved using Prism (Version 6.0; GraphPad Software Inc., San Diego, CA, USA) and the log-rank test was employed to analyze the significance between the different treatments and the controls. * (p < 0.05), ** (p < 0.01) and *** (p < 0.001) represent statistical significance.

MRSA [2] = assay: Time-killing assay; type: cell-based, Staphylococcus aureus; settings: peptide at 4 × MIC; colony counts on MHA; three independent experiments
Experimental: The time-killing assays were employed to determine the killing kinetics of the peptides on the selected bacteria strains. The experiment was performed as described previously. In brief, the bacteria culture was prepared the same way as the antimicrobial activity assay. A bacteria suspension (OD600 = 0.1) was mixed with the peptides at the concentration of their corresponding MICs and 4 × MICs. At different time intervals, 10 µL of aliquots of each sample was transferred into a clean tube and a series of 10-fold dilution was prepared in PBS. A volume of 100 µL of diluted bacteria suspension was spread on an MHA plate, and the number of the bacterial colonies that were formed after an overnight-incubation at 37 °C. The bacteria cultured without any treatment was employed as the negative (growth) control. Three experiments were run in triplicate.

MRSA [3] = assay: Skin disinfection test, pig skin model; design: species or system Staphylococcus aureus; settings: 10 µL peptide at 1 × MIC on MRSA-inoculated pig skin wound, 37 °C, 4 days; SEM
Experimental: Specifically, pig skin was sterilized before using. The pig skins were cut into small pieces, and then, a rectangular groove was cut using a skin graft. 100 µL of logarithmic MRSA solution was inoculated on the wound, followed by incubating at 37 °C for 30 min. […] The pictures of wounds were captured by the digital camera after washing thrice with PBS, fixed with 2.5% (w/v) glutaraldehyde and dehydrated with a graded ethanol series. Finally, the MRSA cells which had attached to the wounded pig skin were visualized by SEM (Hitachi S-4800, Tokyo, Japan).

[4] = Circular dichroism, alpha-helical content (K2D3); type: physicochemical; settings: CD, 50 µM peptide in 50% TFE in 10 mM NH4AC; helical content calculated with K2D3
Experimental: To further identify the secondary structure of purified peptides, they were dissolved in 10 mM ammonium acetate (NH4AC) and 50% trifluoroethanol (TFE) in 10 mM NH4AC, respectively, to achieve the concentration of 50 µM. […] The circular dichroism (CD) data of the peptides in TFE solution was submitted to the K2D3 webserver to analyse the α-helical content. Moreover, helical wheel projections of brevinin-1OS and its analogues were conducted (Figure A7) and the physicochemical properties of all peptides are summarized in Table 1.
Circular dichroism (CD) was employed to determine the secondary structure of the synthetic peptides in the different environment. The peptides were prepared in the aqueous solution, 10 mM NH4AC solution (pH 7.4), or the membrane mimicking solution, 50% TFE in 10 mM NH4AC, at a concentration of 50 µM. The proportion of helical content of each peptide in the 50% TFE in 10 mM NH4AC was calculated using the online server, K2D3 (http://cbdm-01.zdv.uni-mainz.de/~andrade/k2d3/). Physiochemical properties of the helical forming peptides were calculated online by Heliquest (http://heliquest.ipmc.cnrs.fr). Additionally, the secondary structures of peptides were predicted online by I-TASSER Predictions (https://zhanglab.ccmb.med.umich.edu/I-TASSER/).

SMILES: CC(C)C[C@H](NC(=O)[C@H](C)NC(=O)[C@H](Cc1c[nH]c2ccccc12)NC(=O)[C@H](CCCCN)NC(=O)[C@H](CC(C)C)NC(=O)[C@@H](N)Cc1ccccc1)C(=O)N[C@@H](CCCCN)C(=O)N[C@H](C(=O)N[C@@H](C)C(=O)N[C@@H](C)C(=O)N[C@@H](CCCCN)C(N)=O)C(C)C [OSd] (H-FLKWALKVAAK-NH2)
- HC50 (concentration causing 50% haemolysis of the red blood cells) (horse red blood cells): >512 µM

SMILES: CC(C)C[C@H](NC(=O)[C@H](C)NC(=O)[C@H](Cc1c[nH]c2ccccc12)NC(=O)[C@H](CCCCN)NC(=O)[C@@H]1CCCN1C(=O)[C@H](CC(C)C)NC(=O)[C@@H](N)Cc1ccccc1)C(=O)N[C@@H](CCCCN)C(=O)N[C@@H](Cc1c[nH]c2ccccc12)C(=O)N[C@@H](C)C(=O)N[C@@H](C)C(=O)N[C@@H](CCCCN)C(N)=O [OSf] (H-FLPKWALKWAAK-NH2; N-terminus assumed)
- mortality of MRSA-infected larvae (MRSA [1]): dramatically decreased the mortality; also recorded: reduced the mortality
- time to complete killing of MRSA (MRSA [2]): ≤ 45 min
- MRSA on infected pig skin wound after treatment (MRSA [3]): almost eradicated
- α-Helicity [4]: 34.8%
